Reference: patent US6586425B2, “Cytoskeletal active agents for glaucoma therapy” (Wisconsin Alumni Research Foundation, priority 1996, dated 2003)
Where “and” joins values, the source holds several entries; their conditions need not be identical. Equal values may be shown once. Read-outs that look alike come from different tables or passages of the source.

Key:
living monkey eyes [1] = test: Intraocular pressure by Goldmann applanation tonometry; assay type: in vivo, cynomolgus monkeys (Macaca fascicularis)
Method: The intraocular pressure (IOP) was determined with a “minified” Goldmann applanation tonometer (Kaufman and Davis, Arch. Ophthalmol., 98:542-546[1980]), using “Half and Half®” creamer solution (Borden) as the tear film indicator (Croft et al., in Lakshminarayanan (ed.), Basic and Clinical Applications of Vision Science, Dordtecht, Kluwer, [1997], pp. 213-216), with the monkey lying prone in a head holder and the eyes positioned 4 to 8 cm above the heart. All monkeys were examined by slit-lamp before the first IOP measurement in each protocol. For each eye, two or three IOP measurements were averaged as a baseline.
After baseline IOP was measured, 21 or 42 μg LAT-A or 4 μg LAT-B were administered to the central cornea of supine monkeys in one eye and the vehicle to the opposite eye. Blinking was prevented with lid speculums during and for 5 min. after drug administration (taking care to avoid touching the globe), to maximize drug penetration into the AC and minimize systemic absorption. Following drug administration, the speculums were gently removed and the monkeys were kept in the supine position for another 15 min to further facilitate penetration of drug/vehicle solution into the AC. For LAT-A, IOP was then measured every hr for 7 to 9 hr beginning 1, 6, or 15 hr after the 21 gg dose, or beginning 1 or 6 hr after the 42 μg dose, and again at 24 hr. Each protocol included two groups of monkeys. Group one (6 monkeys) underwent IOP measurement from 1-9 hr and again at 24 hr after the drug; group two (6 monkeys) were measured from 6-13 hr for both doses and again from 15 hr-21 hr on a separate occasion for the 21 μg dose. For both doses, one monkey in group one was used again in group two; therefore its two readings measured at baseline or the period 6-9 hr after the drug on the two different occasions was averaged for data analysis. Thus, “n” for baseline and the period 6-9 hr post-drug is 11 rather than 12. During intervals between the post-drug reading at 9 hr and that at 24 hr for group one or between the drug administration and the first post-drug reading at 6 hr for group two, the animals were returned to the Animal Care Unit for recovery. For LAT-B, IOP was measured every hr for 6 hr beginning 1 hr after the 4 μg dose, and again at 24 hr. The animals were returned to the Animal Care Unit for recovery between the measurements at 6 hr and 24 hr. Anterior segments were examined by slit-lamp at 3, 6, 10 or 24 hr after LAT-A, or at 1, 3, 6 or 24 hr after LAT-B.

living monkey eyes [2] = test: Aqueous humor protein concentration (Lowry method); assay type: in vivo, cynomolgus monkeys (Macaca fascicularis); details: 42 μg LAT-A topical
Source text: Approximately 5.5 hr after LAT-A and vehicle (25% DMSO) administration, or approximately 6.5 hr after LAT-B and vehicle (25% DMSO) administration, when AHF measurements had been completed, a sample of AH was obtained under a Zeiss surgical microscope, using a 30-gauge needle connected via polyethylene tubing to a tuberculin syringe. The needle was threaded through the corneal stroma for 6 mm, then directed into the AC so that the wound was self-sealing. AH entered the tubing by very gentle suction with the tuberculin syringe; only occasionally was brief mild pressure on the cornea with a needle holder required to promote the initial flow of AH into the tubing via the very thin needle. Approximately 60-80 μl of AH was removed, leaving a shallow but not completely flattened AC. In separate protocols with different monkeys, AH was similarly obtained 2 hr after 42 μg LAT-A or 1 hr after 4 μg LAT-B to one eye and vehicle to the opposite eye. The AH samples were stored at −20° C. for up to 24 hr. The protein concentration in each sample was assayed by the Lowry method, as known in the art (See e.g., Lowry et al., J. Biol. Chem., 193:265-275[1951]; and Peterson et al., Anal. Biochem., 100:201-220[1979]), in duplicate, and the result averaged. Duplicate sets of protein standards containing 0, 1, 3, 5, 10, 20, 40, or 60 μg bovine serum albumin (BSA) were assayed by the same method and results averaged and graphed to give a linear equation that was used to estimate the protein content in the AH samples. The optical density of each sample was measured at 660 nm using a Spectronic 20 Spectrophotometer (Bausch and Lomb).

corneal endothelium = details: for Cell count Exp, drug eye / Cell count Exp, drug/Vehicle / Cell count Exp, drug−Vehicle / Cell count Exp/BL, drug eye / Cell count Exp/BL, drug/Vehicle / Cell count Exp/BL, drug−Vehicle: 21 μg LAT-A topical, n=4
living monkey eyes [3] = test: Slit lamp biomicroscopy (ocular tolerability); assay type: in vivo, cynomolgus monkeys (Macaca fascicularis)
living monkey eyes [4] = test: Aqueous humor flow and corneal endothelial transfer coefficient ka by fluorophotometry; details: 42 μg LAT-A topical

C/C1=C/C(=O)O[C@@H]2C[C@@H](CC[C@H](C)/C=C\C=C\CC1)O[C@@](O)([C@@H]1CSC(=O)N1)C2 [LAT-A]
period of lowered IOP after drug administration (living monkey eyes [1]; 21 μg LAT-A topical): 5 to 10 h
maximal IOP decrease below baseline (living monkey eyes [1]; 21 μg LAT-A topical, at 8 hr, n=11): 3.48±1.29 mmHg
period of lowered IOP after drug administration (living monkey eyes [1]; 42 μg LAT-A topical): 6 to 13 h
maximal IOP reduction below baseline (living monkey eyes [1]; 42 μg LAT-A topical, at 9 hr, n=11): 4.60±1.61 mmHg
time to IOP reduction after administration (living monkey eyes [1]; living monkeys, topical): 6 h
[Protein]AC vs vehicle-treated eyes (living monkey eyes [2]; 5.5 hr): no difference in protein concentration
[Protein]AC higher than in vehicle-treated eyes (living monkey eyes [2]; two hr, n=7): 25±9%
Cell count Exp, drug eye (corneal endothelium; 3 days): 2488 ± 63 cell per square millimeter
Cell count Exp, drug/Vehicle (corneal endothelium; 3 days): 1.02 ± 0.03
Cell count Exp, drug−Vehicle (corneal endothelium; 3 days): 44 ± 62 cell per square millimeter
Cell count Exp/BL, drug eye (corneal endothelium; 3 days): 0.98 ± 0.01
Cell count Exp/BL, drug/Vehicle (corneal endothelium; 3 days): 1.06 ± 0.02
Cell count Exp/BL, drug−Vehicle (corneal endothelium; 3 days): 0.05 ± 0.10
Cell count Exp, drug eye (corneal endothelium; 7 days): 2488 ± 97 cell per square millimeter
Cell count Exp, drug/Vehicle (corneal endothelium; 7 days): 0.98 ± 0.06
Cell count Exp, drug−Vehicle (corneal endothelium; 7 days): −69 ± 140 cell per square millimeter
Cell count Exp/BL, drug eye (corneal endothelium; 7 days): 0.98 ± 0.03
Cell count Exp/BL, drug/Vehicle (corneal endothelium; 7 days): 1.02 ± 0.08
Cell count Exp/BL, drug−Vehicle (corneal endothelium; 7 days): 0.01 ± 0.07
Cell count Exp, drug eye (corneal endothelium; 14 days): 2694 ± 28 cell per square millimeter
Cell count Exp, drug/Vehicle (corneal endothelium; 14 days): 1.01 ± 0.06
Cell count Exp, drug−Vehicle (corneal endothelium; 14 days): 0 ± 147 cell per square millimeter
Cell count Exp/BL, drug eye (corneal endothelium; 14 days): 1.06 ± 0.03
Cell count Exp/BL, drug/Vehicle (corneal endothelium; 14 days): 1.04 ± 0.03
Cell count Exp/BL, drug−Vehicle (corneal endothelium; 14 days): 0.04 ± 0.03
cell densities vs baseline (corneal endothelium; 21 μg LAT-A, day 3): essentially the same as at baseline
cell densities vs baseline or contralateral eyes (corneal endothelium; 42 μg LAT-A, day 3): slightly (but not significantly) lower cell densities than baseline or contralateral eyes
cell density and morphology (corneal endothelium; LAT-A either dose, day 7): cell density and morphology had returned to baseline
countability of corneal endothelial cells (corneal endothelium; either dose of LAT-A (21 or 42 μg), 1 or 3 hr): could not be counted
recovery of endothelial refractile spots (living monkey eyes [3]; higher dose of LAT-A (42 μg)): most recovered by 10 hr
recovery of endothelial refractile spots (living monkey eyes [3]; lower dose of LAT-A (21 μg)): recovered almost completely by 6 hr
corneal endothelial cell borders (living monkey eyes [3]; one to 5 hr after topical drug): indistinct
relative difference in ka between first and second 3-hr intervals (living monkey eyes [4]): 27±12%
increase in ka (living monkey eyes [4]; first 3 hr): 106±16%
increase in apparent AHF relative to vehicle, adjusted for baseline (living monkey eyes [4]; first 3 hr, n=8): 87% and 87±13%
increase in ka (living monkey eyes [4]; overall, n=8): 94±9%
AHF, drug- vs vehicle-treated eyes (living monkey eyes [4]; second 3 hr): no significant differences
increase in ka (living monkey eyes [4]; second 3 hr): 68±10%
AHF Rx, LAT-A eye (living monkey eyes [4]; hour 0.5 to 3.0, n=8): 3.48 microliters per minutes
AHF Rx, LAT-A/Vehicle (living monkey eyes [4]; hour 0.5 to 3.0, n=8): 1.94
AHF Rx/BL, LAT-A eye (living monkey eyes [4]; hour 0.5 to 3.0, n=8): 1.82
AHF Rx/BL, LAT-A/Vehicle (living monkey eyes [4]; hour 0.5 to 3.0, n=8): 1.87
ka Rx, LAT-A eye (living monkey eyes [4]; hour 0.5 to 3.0, n=8): 0.00996 min⁻¹
ka Rx, LAT-A/Vehicle (living monkey eyes [4]; hour 0.5 to 3.0, n=8): 2.15
ka Rx/BL, LAT-A eye (living monkey eyes [4]; hour 0.5 to 3.0, n=8): 1.84
ka Rx/BL, LAT-A/Vehicle (living monkey eyes [4]; hour 0.5 to 3.0, n=8): 2.06
AHF Rx, LAT-A eye (living monkey eyes [4]; hour 0.5 to 6.0, n=8): 2.65 microliters per minutes
AHF Rx, LAT-A/Vehicle (living monkey eyes [4]; hour 0.5 to 6.0, n=8): 1.51
AHF Rx/BL, LAT-A eye (living monkey eyes [4]; hour 0.5 to 6.0, n=8): 1.38
AHF Rx/BL, LAT-A/Vehicle (living monkey eyes [4]; hour 0.5 to 6.0, n=8): 1.51
ka Rx, LAT-A eye (living monkey eyes [4]; hour 0.5 to 6.0, n=8): 0.00961 min⁻¹
ka Rx, LAT-A/Vehicle (living monkey eyes [4]; hour 0.5 to 6.0, n=8): 1.98
ka Rx/BL, LAT-A eye (living monkey eyes [4]; hour 0.5 to 6.0, n=8): 1.72
ka Rx/BL, LAT-A/Vehicle (living monkey eyes [4]; hour 0.5 to 6.0, n=8): 1.94
AHF Rx, LAT-A eye (living monkey eyes [4]; hour 3.5 to 6.0, n=8): 1.87 microliters per minutes
AHF Rx, LAT-A/Vehicle (living monkey eyes [4]; hour 3.5 to 6.0, n=8): 1.00
AHF Rx/BL, LAT-A eye (living monkey eyes [4]; hour 3.5 to 6.0, n=8): 1.00
AHF Rx/BL, LAT-A/Vehicle (living monkey eyes [4]; hour 3.5 to 6.0, n=8): 1.01
ka Rx, LAT-A eye (living monkey eyes [4]; hour 3.5 to 6.0, n=8): 0.00925 min⁻¹
ka Rx, LAT-A/Vehicle (living monkey eyes [4]; hour 3.5 to 6.0, n=8): 1.69
ka Rx/BL, LAT-A eye (living monkey eyes [4]; hour 3.5 to 6.0, n=8): 1.59
ka Rx/BL, LAT-A/Vehicle (living monkey eyes [4]; hour 3.5 to 6.0, n=8): 1.68
